Experimental data taken from US12048306B1, “1,3-bis(naphthalen-1-yloxy)propan-2-one as an eco-friendly insecticidal agent against Spodoptera littoralis (boisd.)” (priority 2023, dated 2024).
Converted amounts (≈) assume the structure as drawn. Read-outs that look alike come from different tables or passages of the source.

Columns and labels:
[1] = system: aquatic insects; conditions: highly toxic to very highly toxic; cited from earlier work
[2] = system: Spodoptera littoralis; conditions: in vivo
Experimental: (§1) Five concentrations (200, 100, 50, 25, 12.5 ppm) were designed for this synthetic compound and the reference fenoxycarb's compound as the dynamic ingredients based on ppm via diluting the commercial formulation.
(§2) In this experiment, the synthetic compound was tested for its insecticidal bioactivity using the industry-standard leaf dip bioassay techniques. […] Until usage, the stocks were kept in a refrigerator. The target substance test results were noted & the concentrations needed to destroy 50% (LC50) of S. littoralis larvae were calculated. The target compound was employed in five different concentrations, & 0.1% Tween 80 was employed as a surfactant. Castor bean leaf discs (nine centimeters in diameter) were dipped in the concentration under test for ten seconds, then fed to 2th & 4th larvae, which were roughly the same size and housed in glass jars (five pound). Each action carried out 3 times with ten larvae each. The mortality equalized via Abbott's formula. Calculations of mortality setback line were measurably rummage via probity analysis. Harmfulness index was strongminded via sun equations. The mortality results of larval insect were estimated through employing probit analysis through a statistics (LDP-line) equation which estimate the LC50 values with 95% fiducially limits of lower, upper confidence limit and slope.

[3] = system: Spodoptera littoralis; test: Insecticidal leaf dip bioassay on S. littoralis larvae; conditions: for Toxicity ratio: 72 hours, fenoxycarb's LC50 / the compound's LC50; for LC50: Spodoptera littoralis, foliar, laboratory strain, 72 hours of treatment
Experimental: as §1, §2

| SMILES | LC50 [1] [µg/mL] | LC50 [2] | insecticidal activity against Spodoptera littoralis ([3]; 2nd and 4th instar larvae, 72 h, FIGS. 1A-1B, compared with the reference insecticide) | Toxicity ratio ([3]; 2nd instar larvae) | Toxicity ratio ([3]; 4th instar larvae) | LC50 ([3]; 72 h, 2nd instar larvae) [µg/mL] | LC50 ([3]; 72 h, 4th instar larvae) [µg/mL] |
| --- | --- | --- | --- | --- | --- | --- | --- |
| CCc1ccc(C(=O)NN(C(=O)c2cc(C)cc(C)c2)C(C)(C)C)cc1 [tebufenozide] | 100 to 1000 |  |  |  |  |  |  |
| O=C(COc1cccc2ccccc12)COc1cccc2ccccc12 [III, 1,3-bis(naphthalen-1-yloxy)propan-2-one] |  | about 11.32 mg/L | active | 0.241 | 0.515 | 11.3 (≈ 33.1 µM) | ~17.8 (≈ 52 µM) |
| CCOC(=O)NCCOc1ccc(Oc2ccccc2)cc1 [Fenoxycarb, fenoxycarb, reference compound] |  |  |  | 1 | 1 | 2.73 (≈ 9.06 µM) | 9.18 (≈ 30.5 µM) |
